# The source made the active and inactive calls.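 The calls were made as follows: active = caspase luminescence falls with dose and the half-maximal concentration AC50 from the fitted curve is at or below a set limit; inconclusive = flat fit at 30 to 70% signal loss, or invalid fit; inactive = AC50 above the limit, or signal rises instead.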
# Tested on: INS-1E cytokine-induced caspase-3/7, Caspase-Glo luminescence, 48 h
# Experiment: inhibitors of cytokine-induced caspase-3/7 activity, dose response, orthogonal assay for beta-cell apoptosis protection project, INS-1E rat cells, luminescence (AID 463206)
row,SMILES,AC50
1,O=C(Nc1ccccc1Cl)/C(Cl)=C(\Cl)S(=O)c1ccccc1 (stereo not drawn),> 26 µM (inactive)
2,O=[N+]([O-])c1c(Nc2ccc(O)cc2)cc(Cl)c2nonc12,> 26 µM (inactive)
3,CCCCNC(=O)c1ccc(Cn2c(=S)[nH]c3c([nH]c4ccc(OC)cc43)c2=O)cc1,> 26 µM (inactive)
4,Cc1cc(O)c2c(c1)C(=O)C13C(=C2O)C(=O)[C@H]2[C@@H](O)[C@@H]1[C@H]1[C@H](O)[C@@H]3C(=O)C3=C(O)c4c(O)cc(C)cc4C(=O)C312 (stereo partly drawn),21.6 µM
5,O=[N+]([O-])c1ccc(N2CCN(C(=S)Nc3ccc(F)cc3)CC2)cc1,> 26 µM (inactive)
6,Oc1ccc(Nc2nc(-c3ccc4ccccc4c3)cs2)cc1,> 26 µM (inactive)
7,Cc1csc2ncnc(N3CCN(S(=O)(=O)c4cccc(C(F)(F)F)c4)CC3)c12,> 26 µM (inactive)
8,COc1ccc(/C=N/Nc2cc(C)nc3ccc(Br)cc23)cc1,> 26 µM (inactive)
9,O=C(CNc1ccccc1)N/N=C/c1c(O)ccc2ccccc12,> 26 µM (inactive)
10,COc1ccc(-c2cn(-c3ccc(Cl)cc3)c3[n+]2CCCCC3)cc1,> 26 µM (inactive)
11,COc1ccccc1NC(=O)Cn1cc(C(=O)c2ccco2)c2ccccc21,> 26 µM (inactive)
12,C/C(=N\Nc1nc(C)cc(-c2ccccc2)n1)c1ccccc1,> 26 µM (inactive)
13,COc1ccc(C2CC(c3cccc(C)c3)n3nc(N)nc3N2)cc1 (stereo not drawn),> 26 µM (inactive)
14,Cn1cccc1/C=N/NC(=O)Cc1cccs1,> 26 µM (inactive)
15,Cc1c(C(=O)Nc2nc(-c3ccccn3)cs2)oc2ccccc12,> 26 µM (inactive)
16,COc1ccc(S(=O)(=O)Nc2ccc(O)c3ccccc23)cc1,> 26 µM (inactive)
17,CCCCCCCC[n+]1c(C)n(-c2ccccc2)c2ccc(NC(C)=O)cc21,> 26 µM (inactive)
18,CC(O)CNc1nc2sc3c(c2c(=O)n1Cc1ccco1)CCCCC3 (stereo not drawn),> 12 µM (inactive)
19,S=C(Nc1ccc(Cl)cc1)Nc1cccc2cnccc12,> 26 µM (inactive)
20,O=C(Nc1ccc(Cl)c(Cl)c1)N1CCSC1c1ccco1 (stereo not drawn),> 26 µM (inactive)
21,CC(C)Oc1ccc(C(CCN)C2CCCCC2)cc1 (stereo not drawn),> 26 µM (inactive)
22,CCOC(=O)C(NCCc1ccc(F)cc1)(NC(=O)CC)C(F)(F)F (stereo not drawn),> 26 µM (inactive)
23,COc1cccc(/C=N/Nc2ccnc(=O)[nH]2)c1O,> 26 µM (inactive)
24,Cc1ccc(S(=O)(=O)N2CCN(c3ncnc4sccc34)CC2)cc1,> 26 µM (inactive)

row,SMILES,AC50
1,CCOC(=O)c1c(NC(=O)c2cc(-c3ccc(Cl)s3)nc3ccccc23)sc(C(N)=O)c1C,> 26 µM (inactive)
2,CCN(CC)C(=O)c1ccc(S(=O)(=O)N2CCC(c3nc4ccccc4s3)CC2)cc1,> 26 µM (inactive)
3,COc1ccc(C2/C=C\CN(C(=O)Nc3ccc(C(F)(F)F)cc3)CC(=O)N2Cc2ccc(F)cc2)cc1 (stereo not drawn),> 26 µM (inactive)
4,Cc1ccc(-c2nc(C(Cl)Cl)c3ccccc3n2)cc1,2.66 µM
5,O=C(c1cc(-c2ccccc2Cl)nc2ccccc12)N1CCN(c2ccccn2)CC1,3.83 µM
6,CCCCOc1ccc(-c2cc(C(=O)NNC(=S)NCC)c3ccccc3n2)cc1,> 26 µM (inactive)
7,O=C(N/N=C/c1cc([N+](=O)[O-])ccc1O)c1cc(-c2ccccc2)nc2ccccc12,> 26 µM (inactive)
8,O=C(Nc1ccc(F)cc1)Nc1cc(OCC(F)(F)F)cc(OCC(F)(F)F)c1,> 26 µM (inactive)
9,Oc1ccc2ccccc2c1N=Nc1nccs1,> 26 µM (inactive)
10,O=C1C=C(Nc2ccccc2O)c2ccccc2C1=O,> 26 µM (inactive)
11,COC(=O)c1nc(-c2ccc3c(n2)C(=O)C(N)=C(OC)C3=O)c(N)c(-c2ccc(OC)c(OC)c2O)c1C,> 26 µM (inactive)
12,CC(Oc1ccc(Br)cc1)c1nc2c3ccccc3nc(=S)n2[nH]1 (stereo not drawn),> 26 µM (inactive)
13,CC(C)C[C@H](NC(=O)c1nc[nH]c1C(=O)N[C@@H](CC(C)C)C(=O)OC(C)(C)C)C(=O)OCc1ccccc1,> 26 µM (inactive)
14,COc1cc(/C=N/NC(=O)c2cccnc2)ccc1OC(=O)c1cc(OC)c(OC)c(OC)c1,> 26 µM (inactive)
15,CCOc1ccc(-n2c(-c3ccc(Br)cc3)c[n+]3c2CCCCC3)cc1,> 26 µM (inactive)
16,O=C1c2ccc3c4c(ccc(c24)C(=O)N1c1cccc(O)c1)C(=O)N(c1cccc(O)c1)C3=O,> 26 µM (inactive)
17,Cc1nn(Cc2c(Cl)cccc2Cl)c(C)c1NC(=O)c1cn(-c2ccccc2)nc1-c1ccccc1,> 26 µM (inactive)
18,CCCCCCSc1cc(-c2nc3ccc(C)cn3c2NCc2ccccc2)ccc1OC,> 26 µM (inactive)
19,C/C(=N\Nc1nc(C)cc(-c2ccccc2)n1)c1cccc(N)c1,> 26 µM (inactive)
20,CCc1nc(N2CCN(C(C)=O)CC2)c2c3c(sc2n1)CC(C(C)(C)C)CC3 (stereo not drawn),> 26 µM (inactive)
21,CC(=O)/C=C1\N(C)c2ccc(C)cc2C1(C)C,> 26 µM (inactive)
22,Cc1cc(NC2CCCCC2)nc(NCc2ccccc2)n1,> 26 µM (inactive)
23,COc1ccc(C[C@H]2CN3C(=NC[C@@H]3Cc3ccccc3)N2CCNC(=O)CCC2CCCCC2)cc1,> 26 µM (inactive)
24,CCN(CC)c1ccc(/C=N/NC(=O)c2c(Cl)cnn2C)c(O)c1,> 26 µM (inactive)

row,SMILES,AC50
1,O=C(N/N=C/c1cc(Cl)ccc1O)c1ccccc1Br,> 26 µM (inactive)
2,COc1ccc(C(=O)N(C)c2ccccc2C(=O)NCCc2ccccc2)cc1,> 26 µM (inactive)
3,CN1/C(=C\C(=S)NC(=O)c2ccccc2Cl)C(C)(C)c2ccccc21,> 26 µM (inactive)
4,Cc1ccc(Cn2c(=N)n(CC(=O)c3ccccc3)c3ccccc32)cc1,> 26 µM (inactive)
5,CN1/C(=C\C(=S)NC(=O)c2ccc([N+](=O)[O-])cc2)C(C)(C)c2ccccc21,> 26 µM (inactive)
6,O=C(Nc1cc(S(=O)(=O)N2CCCCC2)ccc1Cl)c1ccccc1NS(=O)(=O)c1ccc(F)cc1,> 26 µM (inactive)
7,O=C(N/N=C/c1cc([N+](=O)[O-])ccc1O)c1cccc(NC(=O)c2cccc(Cl)c2)c1,> 26 µM (inactive)
8,C/C(=N\Nc1ccc2nncn2n1)c1ccccn1,> 26 µM (inactive)
9,CC(C)CCCCCCNC(=S)Nc1ccc(S(=O)(=O)N2CCOCC2)cc1,> 26 µM (inactive)
10,O=C1C=C(N2CCCCC2)c2ccccc2C1=O,> 26 µM (inactive)
11,O=C(CSc1nc2ccccc2c(=O)n1-c1ccccc1)N1CCc2ccccc2C1,> 26 µM (inactive)
12,COc1cccc(/C=N/NC(=O)c2c(C)nc3ccc(Cl)cn23)c1O,> 26 µM (inactive)
13,COc1cccc(COc2cc3ccccc3nc2C)c1,> 26 µM (inactive)
14,Cc1ccc(S(=O)(=O)N2CCN(c3ncnc4ccccc34)CC2)cc1,> 26 µM (inactive)
15,C=CCCc1ccc(C#N)c(SCc2c(C(=O)OCC)c3cc(OC(C)=O)c(Br)cc3n2C)n1,> 26 µM (inactive)
16,O=c1c2ccccc2nc(N/N=C/c2c(O)ccc3ccccc23)n1O,> 26 µM (inactive)
17,C=C1C(O)[C@@H]2O[C@]3(CC[C@H](/C=C/C(C)[C@@H]4CC(C)=CC5(O[C@H](C[C@@](C)(O)CO)CCC5O)O4)O3)CC[C@H]2O[C@@H]1C(O)CC(C)[C@H]1OC2(CCCCO2)CCC1C (stereo partly drawn),3.84 µM
18,CC(C)(C)c1cc[n+](C2=C([O-])c3ccccc3C(=O)/C2=N\S(=O)(=O)c2ccccc2)cc1,> 26 µM (inactive)
19,N=c1c2c(n(Cc3cccc(Cl)c3)c3c1CCC3)CCCC2,> 26 µM (inactive)
20,[O-][N+]1=c2ccc(Nc3ccccc3)cc2=NC12CCCCC2,> 26 µM (inactive)
21,CC1CC(=O)N(c2ccc(Br)cc2)C(=O)C1,> 26 µM (inactive)
22,CN(/N=C/c1cc(Br)cc(Br)c1O)c1cccc(C(F)(F)F)n1,> 12 µM (inactive)
23,Cc1cccc(C(=O)Nc2ccc(C(=O)/C=C/c3cccnc3)cc2)c1,> 26 µM (inactive)
24,C=C(C)C(=O)N1CC2(CC(c3cccc(NC(=O)COc4ccc(Cl)cc4)c3)=NO2)C[C@@H]1C(N)=O (stereo partly drawn),> 26 µM (inactive)

row,SMILES,AC50
1,Oc1c(C(c2ccccc2Cl)N2CCCC2)ccc2cccnc12 (stereo not drawn),> 26 µM (inactive)
2,S=C(Nc1ccc(Nc2ccccc2)cc1)Nc1ccccn1,> 26 µM (inactive)
3,CC(C)Oc1ccc(S(=O)(=O)N2CCCCC2)cc1NC(=O)CN1CCCC1c1cccs1 (stereo not drawn),> 26 µM (inactive)
4,COCCN(C(=O)COC(=O)C1CCC(C(C)(C)C)CC1)c1c(N)n(Cc2ccccc2)c(=O)[nH]c1=O (stereo not drawn),> 26 µM (inactive)
5,COc1cnc(-c2ccccn2)nc1Oc1ccc(C(C)(C)C)cc1,> 26 µM (inactive)
6,C1CCC(C(CC2CCCCN2)C2CCCCC2)CC1 (stereo not drawn),> 26 µM (inactive)
7,Cn1cc(/C=C/c2cc[n+](C)cc2)c2cc(Cl)ccc21,> 26 µM (inactive)
8,Cc1cc(C)nc(SCC(=O)Nc2ccnc3ccccc23)n1,> 26 µM (inactive)
9,CCCC[n+]1ccn(C2=C([O-])c3ccccc3C(=O)/C2=N\S(=O)(=O)c2ccc(Cl)cc2)c1,> 26 µM (inactive)
10,O=C(NC(c1ccc(Cl)cc1)c1cc(Cl)c2cccnc2c1O)c1cccnc1 (stereo not drawn),> 26 µM (inactive)
11,Cc1cc(C)n(-c2nc3ccccc3c(=O)n2OCC#N)n1,> 26 µM (inactive)
12,CCN1CCN(CCCNC(=O)c2ccc3c(c2)NC(=O)/C(=C\c2cccc(C)c2)S3)CC1,10.3 µM
13,COc1ccc2nc(/C(C#N)=C\c3ccc(Oc4ccc([N+](=O)[O-])cn4)cc3)[nH]c2c1,> 26 µM (inactive)
14,Cc1cc(N/N=C/c2ccccc2[N+](=O)[O-])nc(-n2nc(C)cc2C)n1,> 26 µM (inactive)
15,CC1=CC(=O)C(C(C)C)=C/C1=N/OS(=O)(=O)c1ccccc1,> 26 µM (inactive)
16,COc1cccc(/C=N/NC(=O)c2cc(-c3ccccn3)nc3ccccc23)c1O,> 26 µM (inactive)
17,CCN(CC)c1ccc(/C=N/NC(=O)CCC(=O)NCc2ccccc2)c(O)c1,> 26 µM (inactive)
18,Nc1c(C(=O)Nc2ccc(S(=O)(=O)N3CCCC3)cc2)sc2nc3ccc(OC(F)(F)F)cc3cc12,> 26 µM (inactive)
19,Cc1occc1C(=O)N/N=C/c1ccc2c(c1)OCO2,> 26 µM (inactive)
20,CCN(CC)CCn1c2ccccc2c2cnc(N)c(C#N)c21,5.57 µM
21,Cc1cc[n+](C(C)C(=O)c2ccc(-c3ccccc3)cc2)cc1 (stereo not drawn),> 26 µM (inactive)

# Reference: PubChem BioAssay AID463206 (Broad Institute, 2010)
